The subject of one experiment is MOLM14 (D835Y) cells. The experiment in a line: Combination drug screening with venetoclax, Cell Titer Glo, MOLM14 (D835Y). The class given is cell-based. On the set-up: key: relative excess HSA score; more negative = greater synergy. The conditions noted are these: 10 × 10, 48 h, negative = synergy. How it is done: (§1) Combination drug therapy has the potential to produce enhanced effects with lower side effects not obtained using either agent alone, or beyond the additive effect of the different concentrations of the two different agents. To determine whether enhanced effects are observed in different drug combinations, combination drug screening was performed as previously described (Mathews-Griner, L. A. et al., Proc. Nat. Acad. Sci., 2014, 111:2349-2354; Lin, G. L. et al., Sci. Trans. Med., 2019, 11: eaaw0064). Briefly, 10 nL of compounds were acoustically dispensed into 1536-well white polystyrene tissue culture-treated plates with an Echo 550 acoustic liquid handler (Labcyte). Cells were then added to compound-containing plates at a density of 500-cells/well in 5 μL of medium. A 10-point custom concentration range was used for all listed drugs in a 10×10 matrix. Plates were incubated for 48 hours at standard incubator conditions covered by a stainless steel gasketed lid to prevent evaporation. 48 hours post compound addition, 3 μL of Cell Titer Glo (Promega) were added to each well and plates were incubated at room temperature for 15 minutes with the stainless-steel lid in place. Luminescence readings were taken using a Viewlux imager (PerkinElmer) with a 2 second exposure time per plate.
(§2) Each compound was studied in combination with venetoclax at two concentration ranges of compound and venetoclax, respectively (for a total of 4 combination dose-response curves). The dose combinations that yielded the optimal synergy score, measured as excess HSA, which are reported in Tables 23 and 24 for the FLT3 mutant cell line MOLM14 (D835Y) and the FLT3 WT cell line THP1, respectively.
Table 23 provides combination outcomes for representative compounds with venetoclax in the Cell Titer Glo assay in MOLM14 (D835Y) cells (a FLT3 mutant cell line) at 48 hours. The table provides relative excess HSA values for compounds of the disclosure used in combination with venetoclax compared to gilteritinib hemifumarate used in combination with venetoclax. A negative excess HSA score illustrates that the drug combination is better than either drug alone, wherein greater synergy is observed at larger negative values of the excess HSA score.
(§3) Excess HSA is a measure of synergy vs. additivity or antagonism, wherein a negative excess HSA value is indicative of synergy. More information on excess HSA scores can be found in Vlot, Anna H. C. et al., Drug Discovery Today, 2019, 24(12):2286-2298. […] However, different methodologies may yield different numerical scores, and different definitions of what constitutes a deviation from mere additivity vs true drug synergy. The large negative excess HSA values provided in Tables 23 and 24 illustrate that multiple members of this structural class synergize with venetoclax. The degree to which combination therapy has to potential to produce enhanced effects with lower side effects not obtained using either agent alone, or beyond the additive effect of the different concentrations of the two different agents depends on the nature of the drugs used in the combination, and the specific doses/concentrations at which they are ultimately used in the therapeutic regimen. A negative excess HSA score illustrates that the drug combination is better than either drug alone (at the concentrations being studied). […] However, the utility in certain drug combinations vs. others should not be distinguished based on cutoffs between excess HSA scores, because the score itself is only a relative indicator that is completely dependent on experimental design and is not an absolute number. Furthermore, the concept of what constitutes clinically meaningful drug synergy is something that is still being debated, not only between pharmacologists and physicians, but amongst pharmacologists themselves. […]
In general terms: Cellular ATP, detected with luciferase, serves as a proxy for viable cell number.

In a further experiment the test system is THP1 cells. The experiment in a line: Combination drug screening with venetoclax, Cell Titer Glo, THP1. Conditions: 10 × 10, 48 h, negative = synergy. The class given is cell-based. How it is done: as §1, §2
Table 24 provides combination outcomes for representative compounds with venetoclax in the Cell Titer Glo assay in THP1 (FLT3 wild type) cells at 48 hours. The table provides relative excess HSA values for compounds of the disclosure used in combination with venetoclax compared to gilteritinib hemifumarate used in combination with venetoclax. A negative excess HSA score illustrates that the drug combination is better than either drug alone, wherein greater synergy is observed at larger negative values of the excess HSA score.
as §3

The mark [1] stands for this setting: compound 0-0.1 μM, venetoclax 0-20 μM.
[2] abbreviates: compound 0-10 μM, venetoclax 0-2 μM.
Setting [3] is: compound 0-10 μM, venetoclax 0-20 μM.

We go through nine molecules from patent US20260374773A1, “MULTI-CYCLIC IRAK AND FLT3 INHIBITING COMPOUNDS AND USES THEREOF” (CHILDREN'S HOSPITAL MEDICAL CENTER, priority 2022, published 2026).

In the case of `COc1cn2ncc(-c3nc(N[C@H]4CNCC[C@@H]4F)ncc3F)c2nc1C(C)(C)O` [Compound 6a, 2-(3-(5-fluoro-2-(((3S,4S)-4-fluoropiperidin-3-yl)amino)pyrimidin-4-yl)-6-methoxypyrazolo[1,5-a]pyrimidin-5-yl)propan-2-ol], the “Excess HSA” value was −1057 in the experiment with MOLM14 (D835Y) cells (setting [1]) and −786.4 in the experiment on THP1 cells (setting [2]).

For the molecule `COc1cn2ncc(-c3nc(N[C@H]4CNC[C@@H]4F)c(F)cc3F)c2nc1C1CC1` [Compound 24, 6-(5-cyclopropyl-6-methoxypyrazolo[1,5-a]pyrimidin-3-yl)-3,5-difluoro-N-((3S,4S)-4-fluoropyrrolidin-3-yl)pyridin-2-amine], the “Excess HSA” value in the experiment with MOLM14 (D835Y) cells (compound 0-0.1 μM, venetoclax 0-2 μM) is −1472; in the experiment with THP1 cells (setting [3]), −1766.

Consider `COc1cn2ncc(-c3cncc(N[C@H]4CNCC[C@@H]4F)n3)c2nc1C1CC1` [Compound 12a, 6-(5-cyclopropyl-6-methoxypyrazolo[1,5-a]pyrimidin-3-yl)-N-((3S,4S)-4-fluoropiperidin-3-yl)pyrazin-2-amine], for which the “Excess HSA” value in the experiment with MOLM14 (D835Y) cells (setting [1]) is given as −1697; with THP1 cells (setting [3]), −1869.

Turning to `COc1cn2ncc(-c3nc(N[C@@H]4CCCNC4)ncc3F)c2nc1C1CC1` [Compound 14a, (R)-4-(5-cyclopropyl-6-methoxypyrazolo[1,5-a]pyrimidin-3-yl)-5-fluoro-N-(piperidin-3-yl)pyrimidin-2-amine], the “Excess HSA” value in the experiment on MOLM14 (D835Y) cells (setting [1]) is given as −559.2; in the experiment on THP1 cells (setting [1]), −1210.

For the molecule `COc1cn2ncc(-c3nc(N[C@H]4CNCC[C@@H]4F)ncc3F)c2nc1C1CC1` [Compound 15a, 4-(5-cyclopropyl-6-methoxypyrazolo[1,5-a]pyrimidin-3-yl)-5-fluoro-N-((3S,4S)-4-fluoropiperidin-3-yl)pyrimidin-2-amine], the “Excess HSA” value in the experiment on MOLM14 (D835Y) cells (setting [1]) was −831; in the experiment with THP1 cells (setting [2]), −861.1.

With `COc1cn2ncc(-c3nc(N[C@@H]4CCCNC4)ccc3F)c2nc1C1CC1` [Compound 2, (R)-6-(5-cyclopropyl-6-methoxypyrazolo[1,5-a]pyrimidin-3-yl)-5-fluoro-N-(piperidin-3-yl)pyridin-2-amine], the results for the “Excess HSA” value in the experiment on MOLM14 (D835Y) cells (setting [1]) and in the experiment on THP1 cells (setting [1]) were −1843 and −990.8, respectively.

Turning to `COc1cn2ncc(-c3ccnc(N[C@H]4CNCC[C@@H]4F)n3)c2nc1C1CC1` [Compound 7a, 4-(5-cyclopropyl-6-methoxypyrazolo[1,5-a]pyrimidin-3-yl)-N-((3S,4S)-4-fluoropiperidin-3-yl)pyrimidin-2-amine], the “Excess HSA” value in the experiment on MOLM14 (D835Y) cells (setting [1]) was −1364; in the experiment on THP1 cells (setting [3]), −1947.

On to `COc1cn2ncc(-c3nc(N[C@H]4CNCC[C@@H]4F)c(F)cc3F)c2nc1C1CC1` [Compound 22, 6-(5-cyclopropyl-6-methoxypyrazolo[1,5-a]pyrimidin-3-yl)-3,5-difluoro-N-((3S,4S)-4-fluoropiperidin-3-yl)pyridin-2-amine], for which the “Excess HSA” value was −992.2 in the experiment on MOLM14 (D835Y) cells (setting [1]) and −850.4 in the experiment with THP1 cells (setting [2]).

Turning to `COc1cn2ncc(-c3ccnc(N[C@H]4CNCC[C@@H]4F)n3)c2nc1C(C)(C)O` [Compound 3a, 2-(3-(2-(((3S,4S)-4-fluoropiperidin-3-yl)amino)pyrimidin-4-yl)-6-methoxypyrazolo[1,5-a]pyrimidin-5-yl)propan-2-ol], the “Excess HSA” value is reported as −1621 in the experiment on MOLM14 (D835Y) cells (compound 0-0.2 μM, venetoclax 0-20 μM) and −1645 with THP1 cells (setting [2]).
